The record followed here is patent US20180065940A1, “METAL-BINDING COMPOUNDS, HETEROLOGOUS PRODUCTION AND USES THEREOF” (The Research Foundation for The State University of New York, priority 2015, published 2018).

For data set [1], the system named is RAW264.7 cells. On the procedure:
Biological Interaction Assays. Cytotoxicity resulting from Ybt samples was determined by the 3-(4, 5-dimethylthiazol-2-yl)-diphenyltetrazolium bromide (MTT) colorimetric assay. Three distinct cell lines (RAW264.7 [macrophage; provided by Dr. Terry Connell, Department of Microbiology and Immunology, University at Buffalo], HeLa [epithelial; provided by Dr. Stelios Andreadis, Department of Chemical and Biological Engineering, University of Buffalo], and NIH3T3 [fibroblast; ATCC]) were cultured in T75 flasks at 37° C./5% CO2. RAW264.7 cells were maintained in medium prepared as follows: 50 mL of FBS (heat inactivated), 5 mL of 100 mM MEM sodium pyruvate, 5 mL of 1 M HEPES buffer, 5 mL of penicillin/streptomycin solution, and 1.25 g of D-(+)-glucose added to 500 mL RPMI-1640 and filter sterilized. HeLa and NIH3T3 cells were maintained in Dulbecco's Modified Eagle Medium (DMEM; Gibco BRL, Grand Island, N.Y.) supplemented with 10% (v/v) FBS (GIBCO) and 1% (v/v) Antibiotic-Antimycotic (A/A; Gibco). […]

The nature of data set [2]: Gold-binding assay (LC-MS). The settings on record: 1 mM Au(III), crude extract 2-5 μM, 2 hours at 22° C. On the procedure: Gold-binding Assay To test Ybt or analog gold binding capability, HAuCl4 was used to generate a solution of 1 mM Au(III) in de-ionized water. To this solution, crude extract of Ybt or analog (from samples prepared without FeCl3 addition) was added at a final concentration of 2-5 μM. After incubation for 2 hours at 22° C., the solution was analyzed by LC-MS.

For data set [3] the following is noted: pH 2 (10 mM HCl). On the procedure: Based upon the pH removal profiles for Ybt-XAD, the column was tested for regeneration (FIG. 27). […] To select the degree of pH reduction, the Ybt compound was tested for degradation over log-fold differences in HCl concentrations (FIG. 31).
The nature of data set [4]: Copper removal experiments with Ybt-modified XAD beads (Zincon assay). Particulars: fresh beads in three successive applications. The protocol:
(§1) Copper Removal Experiments. Copper and zinc removal assessment was completed using the Zincon assay (Sabel et al. 2010. Anal Biochem 397:218-226). Briefly, 40 μL samples (diluted if necessary to keep concentrations less than 4 ppm) were added to 200 μL of borate buffer (65.8 mM; pH=9), and the assay was initiated by adding 10 μL of Zincon solution (1.6 mM). After a five-minute incubation at 20° C., absorbance at 610 nm was measured. Standard curves for Zn and Cu were made using pure salts (Sigma-Aldrich) to allow quantification. The initial measurement provides total metal concentration (zinc and copper together) while the second measurement allows determination of the copper concentration. By subtracting the second reading from the first, zinc concentration is determined. […]
(§2) To test copper removal, 800 μL of copper solution was added to 40 mg of Ybt-modified XAD beads (or controls) and incubated at 30° C. with shaking (for sheep blood and 50% FBS RPMI samples, this temperature was 22° C.). […] The copper content of the original mixture solution and the liquid resulting from the bead washing steps was measured using the Zincon assay described above. […] The removal ability was calculated using the following equation: […]

Data set [5] has as its system red blood cell (RBC) membranes. Particulars: 0.03 mg/mL Ybt or 50 mg/mL Ybt-XAD beads in PBS, 37° C.
Description: To assess potential disruption of red blood cell (RBC) membranes by Ybt samples, a hemolysis assay was modified from a protocol previously described (Jones et al. 2014. Proc Natl Acad Sci USA 111:12360-12365). Briefly, a 5% RBC solution was prepared by washing sheep blood (HemoStat Laboratories) with PBS until the supernatant became clear. Next, 100 μL of purified 5% RBC solution was incubated with 900 μL of 0.03 mg/mL crude extract Ybt samples (or controls) or 50 mg/mL Ybt-complexed XAD beads (or controls) in PBS over time at 37° C. Triton-X 100 (1% solution) was used to construct a blood lysis standard curve by altering the amount of blood added to each respective sample. For example, for 50 and 100% lysis, 50 and 100 μL of purified 5% RBC solution was mixed with 1% Triton-X (to 1 mL). PBS was used to generate negative controls. Samples were centrifuged and hemolysis quantified by measuring supernatant at 541 nm and comparing to the % blood lysis standard curve.
A short description of data set [6]: Zinc removal with Ybt-modified XAD beads (Zincon assay). Particulars: FIG. 14D. On the procedure:
as §1, §2

The nature of data set [7]: Packed-bed removal from zinc and copper solutions. Particulars: pH 6.5. On the procedure:
Copper removal experiments: To test copper removal, 10 grams of each resin (XAD, Chelex 100, and Ybt-XAD) were packed into a 2.5×10 cm glass chromatography column (Bio-Rad). The column was equilibrated with 10 bed volumes of Millipore water before loading the metal solution. The metal solution (˜5 ppm zinc and ˜1 ppm copper; pH adjusted with dilute HCl or NaOH) was pumped (LMI Milton Roy dosing pump) into the column with a continuous flow rate of 1 L/hr. Samples were collected every 30 min. The percent copper or zinc removal was calculated using the following formula: [(Ci−Cf)/Ci]×100, where Ci is the initial copper (or zinc) concentration and Cf is the final concentration. Average selectivity was defined as the ratio of average copper removal (%) to the average zinc removal (%) over the course of the experiment.

Data set [8] is described as follows: Rust removal experiments (1,10-phenanthroline assay). The protocol: Rust Removal Experiments. A rusted carbon steel tube was machine cut into U-shaped pieces (through the University at Buffalo School of Engineering and Applied Sciences Engineering Machine Shop) and each piece, after cleaning with acetone and rinsing with DI water, immersed in 10 mL Millipore water. Samples were then mixed with 250 μL of methanol or final extracts (about 0.2 mg of Ybt) derived from the larger-scale negative control or Ybt production cultures. Samples were then allowed to incubate at 30° C. with shaking for 2 hours.
Rust removal was quantified through a modification of the 1,10-phenanthroline assay to enable detection using a 96-well plate format. To each well, 40 μL of 0.3% (wt/vol) 1,10-phenanthroline, 40 μL of 1% (wt/vol) hydroxylamine hydrochloride, and 40 μL of 0.1 M ammonium acetate were mixed. […] Absorbance was measured using a microplate reader at a wavelength of 510 nm with concentration measurements determined from a calibration curve of Fe^3+ (Sigma-Aldrich).
To assess total rust removal, metal samples recovered after incubation were washed with water and immersed in a solution of 1% (wt/vol) oxalic acid for 30 minute to remove the remaining rust on the metal surface. Upon quantifying the amount of Fe^3+ removed using the 96-well plate method introduced above, percent rust removal was calculated using the following equation: […]

Turning to `CC(C)(C1=N[C@@](C)(C(=O)O)CS1)[C@H](O)[C@@H]1CSC([C@H]2CSC(c3ccccc3O)=N2)N1` (stereo partly drawn) [Ybt, yersiniabactin], the “immunogenicity via NO production from macrophage cells” value in data set [1] is on record as “minimal concerns”. Further, the “gold binding / complex formation” value in data set [2] was “lack of complexation”. For the same compound, the “stability (degradation over time)” value in data set [3] is given as “stability”. In data set [4], the “copper removal after repeated extractions” value is on record as about 100%. In addition, the RBC hemolysis entry in data set [5] is reported as “minimal concerns”. In addition, the zinc removal capability entry in data set [6] is “no discernible capability to remove zinc”. Further, the “zinc binding in fixed bed” value in data set [7] was “not observed”. The “rust removed, of total rust” value in data set [8] (about 0.2 mg of Ybt, 30° C., 2 hours) is recorded as “about 20%”. Moreover, the “rust removed relative to the commercial control” value in data set [8] (relative to commercial product Rust-Oleum) was “about 40%”.
